Tested on: ORYSP = Oryza sativa (transplanted paddy rice)
Test: Greenhouse in-water application (large pots), crop injury
Assay type: in vivo
Experimental: Weed seeds or nutlets of the desired test plant species were planted in puddled soil (mud) prepared by mixing shredded topsoil and deionized (DI) water in a 1:1 ratio in a standard cement mixer. […] Osmocote® (17:6:10 N:P:K; 0.5 teaspoon) was added to the bottom of a container. The container is a high-density polyethylene (HDPE) round container (4.163 L (1.1 gallon), 15 cm high×20.55 cm diameter; for treatment purposes, the surface area is calculated as 331 cm^2 with 1 hectare equivalent to 10^8 cm^2). The mud mixture (2,750 mL) was added to the container filling it half full. Stakes were placed horizontally in each container to create separate areas for which to plant each different plant species. Water was added on a regular basis to maintain the paddy flood, and supplemental lighting was provided with overhead metal halide 1000-Watt lamps as necessary.
Once the plants had reached the proper size (the growth stage of the various species ranged from 2 to 4 leaves), the containers were flooded with city water to a depth of 3 cm submerging the plants 80-100%. The outside of each container was measured and marked at a 3-cm line with a black permanent marker to eliminate water level variability during the trial period. Water was added daily to maintain this water depth. Triclopyr triethylammonium (as Garlon® 3 A, 360 g ae/L); triclopyr butoxyethyl ester (as Garlon® 4, 480 g ae/L); fluroxypyr methylheptyl ester (meptyl or MHE, as Starane® Ultra, 333 g ae/L); fluroxypyr acid (850 grams acid equivalent per kilogram (g ae/kg)); 2,4-dichlorophenoxyacetic acid dimethylammonium (2,4-D DMA, as Weedar® 64 EC, 456 g ae/L); 2,4-dichlorophenoxyacetic acid 2-ethylhexyl ester (2,4-D 2-EHE, as Agri Star®, 456 g ae/L); clopyralid olamine (as Stinger®, 360 g ae/L); and penoxsulam (as Grasp® SC, 240 g ai/L) were used. Each herbicide treatment for each pot was mixed in water (80 mL) and applied directly into the paddy water at rates adjusted to the surface area. The dry formulations were pre-weighed based on the rate of the active ingredient to be applied on a per unit area basis, placed in 30 mL vials, and capped. Granules were spread onto the top of the water in each pot and dispersed throughout the water. Treatments were replicated 3 times.
The treated plants and control plants were placed in a greenhouse as described above and water was added as needed to maintain a flood depth of 3 cm. […]

SMILES	Percent (%) Visual Injury Ratings - 31 DAA, ORYSP (280 g ae/ha in-water)	Percent (%) Visual Injury Ratings - 31 DAA, ORYSP (560 g ae/ha in-water)	Percent (%) Visual Injury Ratings - 31 DAA, ORYSP (1120 g ae/ha in-water)
CCCCCCC(C)OC(=O)COc1nc(F)c(Cl)c(N)c1Cl (stereo not drawn) [Fluroxypyr-meptyl (Starane ® Ultra), 1-methylheptyl 2-[(4-amino-3,5-dichloro-6-fluoro-2-pyridinyl)oxy]acetate]	5%	28%	73%
O=C(O)COc1nc(Cl)c(Cl)cc1Cl [Triclopyr triethanolamine (Garlon ® 3A), triethylammonium 2[(3,5,6-trichloro-2-pyridinyl)oxy]acetate]	1%	5%	70%
O=C(O)COc1ccc(Cl)cc1Cl [2,4-D DMA (Weedar ® 64), dimethylammonium 2-(2,4-dichlorophenoxy)acetate]	0%	3%	4%

Source: US20170055529A1, “BROAD SPECTRUM WEED CONTROL IN FLOODED RICE BY IN-WATER APPLICATION OF AUXIN HERBICIDES” (priority 2015, published 2017)
